Source: article PMC4591660 (Toxins, 2015)
Entries after “also recorded” stand apart in the source; their conditions may differ. Read-outs that look alike come from different tables or passages of the source.

How the values were obtained:
TRPV1 = conditions: cited from earlier work
native HEK293T cells = type: cell-based; conditions: negative for TRPV1, 20 °C, endogenous ASICs
Method: (§1) Thus, electrophysiological tests on transient transfected TRPV1 were performed. […] To our knowledge, HEK293T cells have been reported to endogenously express acid-sensing ion channels (ASICs).
(§2) All patch clamp recordings were carried out at temperature 20 °C using an EPC-10 amplifier (HEKA Electronik, Lambrecht, Germany) according to the previous report. Recording pipettes were made from borosilicate glass capillary tubing, and their resistances were 3–5 MΩ when filled with internal solution. For mKv1.1 and mKv1.3 current recordings, the cells were held at −80 mV for 5 min after the whole-cell construction was established. All of the potassium current traces were elicited by a 300-ms depolarizing potential of 0 mV from a holding potential of −80 mV. The standard pipette solution contained (in mM): 140 KF, 4 MgCl2, 5 ATP-Na, 1 EGTA, and 10 HEPES, pH 7.3. The standard bath solution contained (in mM): 137 NaCl, 5.9 KCl, 2.2 CaCl2, 1.2 MgCl2, 14 glucose, and 10 HEPES, pH 7.3. For mice TRPV1 channel recordings, the pipette and bathing solution contained (in mM): 130 NaCl, 0.2 EDTA, and 3 HEPES, pH 7.2.
(§3) Experimental data of electrophysiological recordings were acquired and analyzed by using the Pulse program and Igor Pro. The data obtained in experiments involving animals were analyzed by GraphPad Prism 5 (GraphPad Software, Inc., San Diego, CA, USA). All of the data points are shown as the means ± S.E. n is presented as the number of experiments. Statistical analysis was carried out by Student’s t test, and * indicated a significant difference (p < 0.01).

mTRPV1 = biological target: T1, mTRPV1 (Mus musculus, UniProt Q704Y3); type: cell-based
T1 construct: expressed in transfected cells; host or cells: HEK293T
Method: as §1, §2, §3

WT mice = type: in vivo, C57BL/6J; conditions: 10 μL intraplantar, left hind paw, 30 min recording, n = 10; for pain behavior (duration of paw licking/biting): 500 µM, vs saline; for pain behavior (paw licking), dose-response: different doses
Method: (§4) Mice, C57BL/6J, were used as wild type (WT) in these experiments. TRPV1-KO mice were purchased from Model Animal Research Center of Nanjing University, China. All the experiments using animals were carried out in accordance with recommendations in the Guide for the Care and Use of Laboratory Animals of Kunming Institute of Zoology, Chinese Academy of Sciences. Experimental protocols using animals in this work were approved by the Institutional Animal Care and Use Committees at Kunming Institute of Zoology, Chinese Academy of Sciences (2014-204). All efforts were made to reduce the number of animals used and to minimize the suffering of animals.
(§5) Control mice were injected with the same volume of saline. Immediately after injection, the time of paw licking was recorded by digital video camera for 30 min.
as §3

[1] = system: DRG neurons of TRPV1 KO mice; type: cell-based, mouse
Method: (§6) DRG neurons from WT or TRPV1 KO mice were acutely dissociated and maintained in short-term primary culture as previously described. DRGs were incubated in 5% CO2/95% air at 37 °C for 1–4 h prior to patch-clamp experiments. HEK293T cells were used for mKv1.1 or mKv1.3 expression. Cells were grown under standard tissue culture conditions (5% CO2, 37 °C) in DMEM supplemented with 10% fetal bovine serum. Cells were transfected with DNA mixture (channel constructs and a green fluorescent protein (GFP) reporter plasmid) using lipofectamine 2000 transfection reagent (Invitrogen, Carlsbad, CA, USA) following the manufacturer’s instructions and used for electrophysiology 24–48 h after transfection. Cells with GFP fluorescence were selected for patch-clamp recordings […] after transfection.
as §2
as §3, with “Statistical analysis was carried out by Student’s t test, and * indicated a significant difference (p < 0.01).” left out

DRG neurons of WT mice = type: cell-based, mouse; conditions: 10 µM; DRG neurons 20 µm ≤ cell ≤ 35 µm; 20 °C
Method: as §6, §2
as §3, with “Statistical analysis was carried out by Student’s t test, and * indicated a significant difference (p < 0.01).” left out

Kv1.3 = system: Kv1.3; design: method as in PMID 11173083, PMID 10565809; conditions: ref [37],[38]; cited from earlier work
TRPV1 KO mice = type: in vivo; conditions: 500 µM, 10 μL intraplantar, left hind paw; 30 min recording; n = 10; vs saline
Method: as §4, §5, §3

Kv1.1 = system: Kv1.1; design: method as in PMID 11173083, PMID 10565809; conditions: ref [37],[38]; cited from earlier work

T1 sequence (Q704Y3 whole entry): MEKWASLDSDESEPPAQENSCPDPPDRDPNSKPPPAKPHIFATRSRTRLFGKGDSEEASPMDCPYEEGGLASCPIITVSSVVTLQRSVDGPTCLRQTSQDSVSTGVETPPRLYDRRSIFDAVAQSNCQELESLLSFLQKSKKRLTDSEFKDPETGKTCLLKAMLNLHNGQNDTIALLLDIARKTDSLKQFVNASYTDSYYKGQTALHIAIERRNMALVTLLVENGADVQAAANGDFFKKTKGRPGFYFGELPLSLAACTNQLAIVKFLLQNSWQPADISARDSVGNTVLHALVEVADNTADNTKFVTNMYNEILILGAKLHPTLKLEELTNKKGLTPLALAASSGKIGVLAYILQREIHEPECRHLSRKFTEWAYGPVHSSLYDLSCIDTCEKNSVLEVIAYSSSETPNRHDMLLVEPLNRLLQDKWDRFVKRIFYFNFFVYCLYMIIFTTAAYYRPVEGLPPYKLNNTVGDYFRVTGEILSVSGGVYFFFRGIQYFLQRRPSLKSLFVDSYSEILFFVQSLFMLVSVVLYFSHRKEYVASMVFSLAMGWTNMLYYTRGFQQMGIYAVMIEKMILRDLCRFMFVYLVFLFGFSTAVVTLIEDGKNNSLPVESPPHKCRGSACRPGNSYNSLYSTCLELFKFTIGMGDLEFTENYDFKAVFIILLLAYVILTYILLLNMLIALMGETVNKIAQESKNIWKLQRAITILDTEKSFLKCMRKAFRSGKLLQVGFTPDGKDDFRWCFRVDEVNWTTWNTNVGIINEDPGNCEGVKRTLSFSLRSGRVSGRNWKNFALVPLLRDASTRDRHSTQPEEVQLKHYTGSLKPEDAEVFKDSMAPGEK

Row | Compound | agonism on TRPV1 (TRPV1) | evoked currents in native HEK293T cells, ramp method (native HEK293T cells) | activation of TRPV1 (comparator agonists) (mTRPV1) | evoked currents in TRPV1-expressed HEK293T cells, ramp method (mTRPV1) | pain behavior (duration of paw licking/biting) (WT mice) | pain behavior (paw licking), dose-response (WT mice) | normalized evoked currents, TRPV1 KO compared with WT DRG neurons [1] | evoked currents on DRG neurons (TRPV1 KO) ([1]; 10 µM, DRG neurons 20 µm ≤ cell ≤ 35 µm, 20 °C) | evoked currents on DRG neurons (WT) (DRG neurons of WT mice) | inhibition of Kv1.3 (Kv1.3) | pain behavior (duration of paw licking/biting) (TRPV1 KO mice) | pain behavior (paw licking), dose-response (WT mice; listed as Kaliotoxin) | inhibition of Kv1.1 (Kv1.1) | activation of TRPV1 (comparator agonists) (mTRPV1; HEK293T expressing mTRPV1, concentration not given, 20 °C)
1 | COc1cc(CNC(=O)CCCC/C=C/C(C)C)ccc1O [capsaicin] | well-known agonist of TRPV1 | did not evoke the currents | potently activated TRPV1 | evoked the currents in HEK293T cells with over-expressed TRPV1 channels | induced pain in WT mice | induced acute pain in a dose dependent manner | significantly higher in WT than TRPV1 KO mice; also recorded: significantly lower in TRPV1 KO mice than in WT mice | not TRPV1 KO mice; also recorded: did not evoke currents | effectively evoked the currents in DRG neurons of WT; also recorded: evoked the currents on DRG sensory neurons of WT mice | – | – | – | – | –
2 | kaliotoxin | – | – | – | – | unable to induce pain | did not induce pain | – | – | – | potent inhibitor of Kv1.1 and Kv1.3 | only crude venom induced pain | showed no significant pain behavior | potent inhibitor of Kv1.1 and Kv1.3 | –
3 | NCCOB(c1ccccc1)c1ccccc1 [2APB] | – | – | – | – | – | – | – | – | – | – | – | – | – | potently activated TRPV1
